Results published in US8829007B2 (priority 2009, dated 2014).
pEC50, pIC50: −log10 of the molar value. Read-outs that look alike come from different tables or passages of the source.

Experiments:
[1] = test system: influenza A virus (A/PR/8/34); test: microbe, parasite or virus in culture; assay type: cell-based; settings: Influenza A virus, PR/8, MDCK, read-out: IC50 (mean all)
[2] = test system: A/PR/8/34 influenza virus; test: microbe, parasite or virus in culture; assay type: cell-based; settings: Influenza A virus, PR/8, MDCK, read-out: EC50 (mean all)
[3] = MDCK cells infected with A/PR/8/34, cell protection (CPE)
[4] = MDCK cells infected with A/PR/8/34, bDNA viral RNA

CCC(=O)N1CCC[C@@H](CNc2nc(-c3c[nH]c4ncc(Cl)cc34)ncc2F)C1 [Compound 32, (S)-1-(3-((2-(5-chloro-1H-pyrrolo[2,3-b]pyridin-3-yl)-5-fluoropyrimidin-4-ylamino)methyl)piperidin-1-yl)propan-1-one]
pIC50 [1, 3]: > 5.30 | pEC50 [2, 4]: > 5.30

CCOC(=O)N1CCC[C@@H](CNc2nc(-c3c[nH]c4ncc(Cl)cc34)ncc2F)C1 [Compound 33, (S)-ethyl 3-((2-(5-chloro-1H-pyrrolo[2,3-b]pyridin-3-yl)-5-fluoropyrimidin-4-ylamino)methyl)piperidine-1-carboxylate]
pIC50 [1, 3]: > 5.30 | pEC50 [2, 4]: > 5.30

CS(=O)(=O)N1CCC[C@@H](CNc2nc(-c3c[nH]c4ncc(Cl)cc34)ncc2F)C1 [Compound 36, (S)-2-(5-chloro-1H-pyrrolo[2,3-b]pyridin-3-yl)-5-fluoro-N-((1-(methylsulfonyl)-piperidin-3-yl)methyl)pyrimidin-4-amine]
pIC50 [1, 3]: > 5.30 | pEC50 [2, 4]: > 5.30

CC(=O)N1CCC[C@@H](CNc2nc(-c3c[nH]c4ncc(Cl)cc34)ncc2F)C1 [Compound 37, (S)-1-(3-((2-(5-chloro-1H-pyrrolo[2,3-b]pyridin-3-yl)-5-fluoropyrimidin-4-ylamino)methyl)piperidin-1-yl)ethanone]
pIC50 [1, 3]: > 5.30 | pEC50 [2, 4]: > 5.30

C=CCNC(=O)N1CCC[C@@H](CNc2nc(-c3c[nH]c4ncc(Cl)cc34)ncc2F)C1 [Compound 39, (S)—N-allyl-3-((2-(5-chloro-1H-pyrrolo[2,3-b]pyridin-3-yl)-5-fluoropyrimidin-4-ylamino)methyl)piperidine-1-carboxamide]
pIC50 [1, 3]: > 5.30 | pEC50 [2, 4]: > 5.30

CC=CC(=O)N1CCC[C@@H](CNc2nc(-c3c[nH]c4ncc(Cl)cc34)ncc2F)C1 [Compound 41, (S)-1-(3-((2-(5-chloro-1H-pyrrolo[2,3-b]pyridin-3-yl)-5-fluoropyrimidin-4-ylamino)methyl)piperidin-1-yl)but-2-en-1-one]
pIC50 [1]: > 5.30 | pEC50 [2]: > 5.30

O=C(CC(F)(F)F)N1CCC[C@@H](CNc2nc(-c3c[nH]c4ncc(Cl)cc34)ncc2F)C1 [Compound 44, (S)-1-(3-((2-(5-chloro-1H-pyrrolo[2,3-b]pyridin-3-yl)-5-fluoropyrimidin-4-ylamino)methyl)piperidin-1-yl)-3,3,3-trifluoropropan-1-one]
pIC50 [1, 3]: > 5.30 | pEC50 [2, 4]: > 5.30

COCC(=O)N1CCC[C@@H](CNc2nc(-c3c[nH]c4ncc(Cl)cc34)ncc2F)C1 [Compound 45, (S)-1-(3-((2-(5-chloro-1H-pyrrolo[2,3-b]pyridin-3-yl)-5-fluoropyrimidin-4-ylamino)methyl)piperidin-1-yl)-2-methoxyethanone]
pIC50 [1, 3]: > 5.30 | pEC50 [2, 4]: > 5.30

O=C(Cc1cccnc1)N1CCC[C@@H](CNc2nc(-c3c[nH]c4ncc(Cl)cc34)ncc2F)C1 [Compound 47, (S)-1-(3-((2-(5-chloro-1H-pyrrolo[2,3-b]pyridin-3-yl)-5-fluoropyrimidin-4-ylamino)methyl)piperidin-1-yl)-2-(pyridin-3-yl)ethanone]
pIC50 [1, 3]: > 5.30 | pEC50 [2, 4]: > 5.30

C=CCC(=O)N1CCC[C@@H](CNc2nc(-c3c[nH]c4ncc(Cl)cc34)ncc2F)C1 [Compound 49, (S)-1-(3-((2-(5-chloro-1H-pyrrolo[2,3-b]pyridin-3-yl)-5-fluoropyrimidin-4-ylamino)methyl)piperidin-1-yl)but-3-en-1-one]
pIC50 [1, 3]: > 5.30 | pEC50 [2, 4]: > 5.30

O=C1CC[C@H](C(=O)N2CCC[C@@H](CNc3nc(-c4c[nH]c5ncc(Cl)cc45)ncc3F)C2)O1 [Compound 51, (R)-5-((S)-3-((2-(5-chloro-1H-pyrrolo[2,3-b]pyridin-3-yl)-5-fluoropyrimidin-4-ylamino)methyl)piperidine-1-carbonyl)dihydrofuran-2(3H)-one]
pIC50 [1, 3]: > 5.30 | pEC50 [2, 4]: > 5.30
